Experimental data taken from US4965283A, “Amino acid esters, process for the preparation thereof and use thereof” (Dr. Willmar Schwabe GmbH & Co., priority 1987, dated 1990).
Where a name gives a salt, the structure may show the parent alone. Read-outs that look alike come from different tables or passages of the source.

How the values were obtained:
[1] = tested on: mouse; assay: observation for neurotoxicity symptoms (motility, muscle tonus, respiratory frequency, body temperature, general behaviour); type: in vivo; conditions: p.o.
Experimental: During the experiments described above, the animals were observed during the whole of the experimental period (up to 4 hours) for signs of substance-caused changes of behaviour and neurotoxicity (motility, muscle tonus, respiratory frequency, body temperature and general behaviour).

[2] = tested on: maximum electroshock spasm (MES), extensor spasm in mice; assay: MES test (maximum electroshock; inhibition of extensor spasm); type: in vivo, male mice (NMRI); conditions: for ED50 / responders at 100 mg/kg / responders at 50 mg/kg / responders at 25 mg/kg: Mus musculus, po; for ED50: read-out: ED 50 values; for ED 50 values (estimated values): * estimated from several tests with different dosages
From the text: For the determination of the anticonvulsive/anti-epileptic activity of the substances according to the present invention the method described by E. A. Swinyard et al., J. Pharmacol. exp. Therapeut. 106, 319-330 (1952) and by L. A. Woodbury et al., Arch. int. Pharmacodyn., 92, 97-107 (1952) was used. To male mice (NMRI) with a body weight of 20-25 g via corneal electrodes, an alternating current of 50 Hz and 50 mA is applied for 0.2 sec. (HSE-shock stimulation apparatus; type 207). The maximum electroshock spasm (MES) consists of a tonic extension of the rear extremities, the clonic twitch and loss of consciousness. The activity criterion is taken as being the inhibition of the extensor spasm by the substances according to the present invention. Before the experiments the mice had free access to feed and water. The test substances were administered orally as suspensions in 0.2% agar by stomach tubes; the control animals received adequate volumes of agar. 1 hour and 3 hours after administration the test for protective action against MES was carried out.
As percentage action the percentage proportion of those animals which in the MES test were protected 100% against the extensor spasm is given. 10 animals were used per test.
The ED 50 values were determined according to Lichtfield and Wilcoxon J. Pharmacol. exp. Therapeut. 96, 99 (1949) in each case with 4 to 5 animal groups each of 8-10 animals per dosage stage.

[3] = 1 h, 100 mg/kg, oral, 1 hr after administration, n = 10, read-out: protective action [%] after 1 hr
[4] = 3 h, 100 mg/kg, oral, 3 hrs after administration, n = 10, read-out: protective action [%] after 3 hrs
[5] = MES test, oral, 1 hour after administration
[6] = 1 h, 50 mg/kg, oral, 1 hr after administration, n = 10, read-out: protective action [%] after 1 hr
[7] = 3 h, 50 mg/kg, oral, 3 hrs after administration, n = 10, read-out: protective action [%] after 3 hrs
[8] = 50 mg/kg, oral, 1 hr after administration, n = 10
[9] = 50 mg/kg, oral, 3 hrs after administration, n = 10
[10] = 1 h, MES test, oral, 1 hour after administration

For CCCC(C)C1(CC)C(=O)NC(=O)NC1=O (centres unmarked) [pentobarbital], the “Neurotoxic limiting dose in the mouse, dose p.o.” value [1] was 60 mg/kg.
For CCC1(c2ccccc2)C(=O)NC(=O)NC1=O [phenobarbital, reference compound], the “Neurotoxic limiting dose in the mouse, dose p.o.” value [1] was 60 mg/kg, the ED50 ([2]; 1 h) was 19.2 mg/kg and the responders at 100 mg/kg ([2]; 1 h, read-out: protective action [%] after 1 hr) was 100%. The responders at 100 mg/kg ([2]; 3 h, read-out: protective action [%] after 3 hrs) was 100%.
COC1=CC(=O)OC1C(OC(=O)[C@@H]1CCCN1)c1ccccc1C(F)(F)F (some centres unmarked) [139 B] was tested, and the responders at 100 mg/kg [2, 3] was 40% and the responders at 100 mg/kg [2, 4] was 10%.
In the case of COC1=CC(=O)OC1C(OC(=O)[C@@H](N)c1ccccc1)c1ccccc1 (single isomer, unassigned) [108 A], the “ED 50 values (estimated values)” value [2, 5] is reported as 70 to 80 mg/kg, the responders at 100 mg/kg [2, 3] is reported as 90% and the responders at 100 mg/kg [2, 4] is reported as 0%.
In the case of COC1=CC(=O)OC1C(OC(=O)[C@@H](N)CCC(=O)O)c1ccccc1Cl (single isomer, unassigned) [123 A], the responders at 50 mg/kg [2, 6] is reported as 70% and the responders at 50 mg/kg [2, 7] is reported as 20%.
For COC1=CC(=O)OC1C(OC(=O)CNC(=O)C(C)(C)C)c1ccccc1Cl (single isomer, unassigned; (+)) [Example 152, (+)-threo-5-[2-chlorophenyl-(N-pivaloylglycyloxy)-methyl]-4-methoxy-2(5H)-furanone], the “protective action [%] after 1 hr” value [2, 8] was 100%, the “protective action [%] after 3 hrs” value [2, 9] was 90% and the “ED 50 values” [2, 5] was 16.3 mg/kg.
For COC1=CC(=O)O[C@H]1[C@H](OC(=O)CN)c1ccccc1Cl (relative stereo) [Example 111, threo-5-[2-chlorophenyl-(glycyloxy)-methyl]-4-methoxy-2(5H)-furanone hydrobromide], the responders at 50 mg/kg [2, 6] was 100%, the ED50 [2, 10] was 24.2 mg/kg and the responders at 50 mg/kg [2, 7] was 80%.
In the case of COC1=CC(=O)OC1C(OC(=O)[C@H](C)N)c1ccc(Cl)cc1Cl (stereo partly drawn) [Example 133, threo-5-[L-alanyloxy-(2,4-dichlorophenyl)-methyl]-4-methoxy-2(5H)-furanone hydrobromide], the “ED 50 values (estimated values)” value [2, 5] is reported as 60 to 70 mg/kg, the responders at 100 mg/kg [2, 3] is reported as 100% and the responders at 100 mg/kg [2, 4] is reported as 100%.
COC1=CC(=O)OC1C(OC(=O)[C@@H]1CCCN1)c1cc(Cl)ccc1Cl (single isomer, unassigned) [137 A] showed a responders at 50 mg/kg [2, 6] of 100% and a responders at 50 mg/kg [2, 7] of 100%.
COC1=CC(=O)O[C@H]1[C@H](OC(=O)CCCN)c1ccccc1Cl (relative stereo) [Example 113, threo-5-[4-aminobutanoyloxy-(2-chlorophenyl)-methyl]-4-methoxy-2(5H)-furanone hydrobromide] was tested, and the “ED 50 values (estimated values)” value [2, 5] was 25 to 35 mg/kg, the responders at 50 mg/kg [2, 6] was 100% and the responders at 50 mg/kg [2, 7] was 50%.
For COC1=CC(=O)OC1C(OC(=O)[C@@H]1CCCN1)c1ccccc1 (some centres unmarked) [110 A], the “ED 50 values (estimated values)” value [2, 5] was 40 to 50 mg/kg, the responders at 100 mg/kg [2, 3] was 100% and the responders at 100 mg/kg [2, 4] was 0%.
With COC1=CC(=O)OC1C(OC(=O)[C@@H]1CCCN1)c1ccccc1F (single isomer, unassigned) [129 A] the “protective action [%] after 1 hr” value ([2]; 100 mg/kg, oral, 1 hr after administration, n = 10) was 100%, the “protective action [%] after 3 hrs” value ([2]; 100 mg/kg, oral, 3 hrs after administration, n = 10) was 100% and the “ED 50 values (estimated values)” value [2, 5] was 40 to 50 mg/kg.
COC1=CC(=O)OC1C(OC(=O)[C@@H]1CCCN1)c1ccccc1Br (single isomer, unassigned) [127 A] showed a responders at 50 mg/kg [2, 6] of 100% and a responders at 50 mg/kg [2, 7] of 100%.
In the case of COC1=CC(=O)O[C@H]1[C@H](OC(=O)CCCNC(C)=O)c1ccccc1Cl (relative stereo) [Example 115, threo-5-[4-(N-acetylamino)-butanoyloxy-(2-chlorophenyl)methyl]-4-methoxy-2(5H)-furanone], the “ED 50 values (estimated values)” value [2, 5] is reported as 30 to 40 mg/kg, the responders at 100 mg/kg [2, 3] is reported as 100% and the responders at 100 mg/kg [2, 4] is reported as 100%.
Compound COC1=CC(=O)OC1C(OC(=O)[C@H](N)c1ccccc1)c1ccccc1Cl (some centres unmarked) [119 B] has a responders at 50 mg/kg [2, 6] of 100%, an ED50 [2, 10] of 37.6 mg/kg and a responders at 50 mg/kg [2, 7] of 20%.
With COC1=CC(=O)OC1C(OC(=O)[C@@H]1CCCN1)c1ccccc1C(F)(F)F (single isomer, unassigned) [139 A] the “ED 50 values (estimated values)” value [2, 5] was 15 to 20 mg/kg, the responders at 50 mg/kg [2, 6] was 100% and the responders at 50 mg/kg [2, 7] was 50%.
With COC1=CC(=O)OC1C(OC(=O)[C@@H]1CCCN1)c1ccccc1C (single isomer, unassigned) [141 A] the “ED 50 values (estimated values)” value [2, 5] was 110 to 120 mg/kg, the responders at 100 mg/kg [2, 3] was 40% and the responders at 100 mg/kg [2, 4] was 10%.
COC1=CC(=O)O[C@H]1[C@H](OC(=O)CCCN)c1ccccc1Cl (relative stereo) [Example 114, threo-5-[4-aminobutanoyloxy-(2-chlorophenyl)-methyl]-4-methoxy-2(5H)-furanone hydrochloride] was tested, and the “protective action [%] after 3 hrs” value ([2]; 50 mg/kg, oral, 3 hrs after administration, n = 10, hydrochloride) was 30% and the ED50 [2, 10] was 40 mg/kg.
In the case of COC1=CC(=O)O[C@H]1[C@H](OC(=O)C(C)(C)N)c1ccccc1Cl (relative stereo) [Example 155, threo-5-[2-chlorophenyl-(2-methylalanyloxy)-methyl]-4-methoxy-2(5H)-furanone-hydrobromide], the “ED 50 values (estimated values)” value [2, 5] is reported as 20 to 30 mg/kg, the responders at 25 mg/kg ([2]; 1 h, oral, 1 hr after administration, n = 10, read-out: protective action [%] after 1 hr) is reported as 50% and the responders at 25 mg/kg ([2]; 3 h, oral, 3 hrs after administration, n = 10, read-out: protective action [%] after 3 hrs) is reported as 10%.
COC1=CC(=O)O[C@H]1[C@H](OC(=O)CNC(C)=O)c1ccccc1Cl (relative stereo) [Example 106, threo-5-[N-acetylglycyloxy-(2-chlorophenyl)-methyl]-4-methoxy-2(5H)-furanone] was tested, and the responders at 50 mg/kg [2, 6] was 100%, the ED50 [2, 10] was 23.1 mg/kg and the responders at 50 mg/kg [2, 7] was 70%.
COC1=CC(=O)O[C@@H]1[C@@H](OC(=O)[C@@H]1CCCN1)c1ccccc1Cl [104 A] showed a responders at 50 mg/kg [2, 6] of 100% and a responders at 50 mg/kg [2, 7] of 100%.
COC1=CC(=O)OC1C(OC(=O)[C@@H]1CCCN1C(=O)OCc1ccccc1)c1cc(Cl)ccc1Cl (single isomer, unassigned) [136 A] was tested, and the “ED 50 values (estimated values)” value [2, 5] was 40 to 50 mg/kg, the responders at 50 mg/kg [2, 6] was 60% and the responders at 50 mg/kg [2, 7] was 50%.
COC1=CC(=O)O[C@H]1[C@H](OC(=O)C1(N)CCCCC1)c1ccccc1Cl (relative stereo) [Example 157, threo-5-[1-amino-1-cyclohexylcarbonyloxy-(2-chlorophenyl)-methyl]-4-methoxy-2(5H)-furanone hydrobromide] gave a responders at 100 mg/kg [2, 3] of 100%, an ED50 [2, 10] of 27.5 mg/kg and a responders at 100 mg/kg [2, 4] of 40%.
COC1=CC(=O)OC1C(OC(=O)[C@@H]1CCCN1)c1ccc(Cl)cc1Cl (single isomer, unassigned) [135 A] was tested, and the “ED 50 values (estimated values)” value [2, 5] was 65 to 75 mg/kg, the responders at 100 mg/kg [2, 3] was 100% and the responders at 100 mg/kg [2, 4] was 100%.
In the case of COC1=CC(=O)OC1C(OC(=O)CNC(C)=O)c1ccccc1Cl (single isomer, unassigned; (+)) [Example 150], the “protective action [%] after 1 hr” value [2, 8] is reported as 100%, the “protective action [%] after 3 hrs” value [2, 9] is reported as 100% and the “ED 50 values” [2, 5] is reported as 14.4 mg/kg.
With COC1=CC(=O)O[C@H]1[C@H](OC(=O)CN)c1ccc(Cl)cc1Cl (relative stereo) [Example 130, threo-5-[2,4-dichlorophenyl-(glycyloxy)-methyl]-4-methoxy-2(5H)-furanone hydrobromide] the “ED 50 values (estimated values)” value [2, 5] was 40 to 50 mg/kg, the responders at 100 mg/kg [2, 3] was 100% and the responders at 100 mg/kg [2, 4] was 100%.
In the case of COC1=CC(=O)O[C@H]1[C@H](OC(=O)CN)c1ccccc1 (relative stereo) [Example 105, threo-5-[glycyloxy-(phenyl)-methyl]-4-methoxy-2(5H)-furanone hydrobromide], the responders at 100 mg/kg [2, 3] is reported as 70%, the ED50 [2, 10] is reported as 87.5 mg/kg and the responders at 100 mg/kg [2, 4] is reported as 0%.
